Assay results from patent publication US6380359B1, “Liposomes comprising peptide antigens derived from X protein of hepatitis B virus” (Mogam Biotechnology Research Institute, priority 1998, dated 2002).
No end group written: not given here.

Tests used:
RMA cell or EL4 cell = experiment: Cytotoxicity of T lymphocytes from C57BL/6 mice immunized with pH-sensitive liposomes comprising HCV peptide, Cr51 release; assay type: in vivo, C57BL/6 mouse; details: mice immunized with pH-sensitive liposomes (POPE/CHOH 7:3) comprising the peptide
Description: (§1) In order to investigate whether pH-sensitive liposome as a carrier of peptides can induce CTL response specific to the virus from which the peptides are derived, pH-sensitive liposomes encapsulating synthetic peptides were prepared and cytotoxicity study were carried out in a serial manner. Since the cellular immunity of the pepitides which can bind HLA-A2, a human MHC class I molecule should be investigated employing human body, indirect experiment employing the peptides derived HIV and HCV proteins which can bind mouse MHC Class I molecule(see: Table 4 below), was carried out. In this regard, the pH-sensitive liposome comprising the peptides were obtained employing the phospholipid composition consisting of POPE/CHOH(7:3 in a molar ratio). Then, mice were immunized with the liposomes, T lymphocytes were isolated from the mice, and cytotoxicity of the T lymphocytes after recognition of target cells labelled with Cr^51 was determined.
In case of HIV, Balb/C mouse was immunized with pH-sensitive liposomes comprising R15K or T26K, and at 4 weeks after booster immunization, its spleen was dissected and homogenized in 2 ml of RPMI cell culture medium using a homogenizer. 2 ml of the homogenate thus obtained was added to 2 ml of ficoll and centrifuged at 1,500 rpm for 30 minutes. T lymphocytes located between ficoll and the cell culture medium were separated, added to 15 ml of RPMI-10 cell culture medium, centrifuged at 1,000 rpm, and washed three times with the RPMI-10 medium. The T lymphocytes were diluted to a cell concentration of 5×10^6/ ml into a 24 well-plate, and the immunized peptide antigen was added to a final concentration of 2 μM. Then, the cells were cultured at 37° C. for 3 days in a CO2 incubator containing 5% CO2 and used as effector cells. […]
100 μM of the immunized peptide was added to the respective target cells, reacted at 37° C. for 16 hours, and washed twice with RPMI cell culture medium. […] The resultant medium was collected and measured for the intensity of gamma ray to determine cytotoxicity of effector cells against target cells(see: Table 5).

p815 cell = experiment: Cytotoxicity of T lymphocytes from Balb/C mice immunized with pH-sensitive liposomes comprising HIV peptides, Cr51 release; assay type: in vivo, Balb/C mouse; details: mice immunized with pH-sensitive liposomes (POPE/CHOH 7:3) comprising the peptide
Description: as §1
In case of HIV, Balb/C mouse was immunized with pH-sensitive liposomes comprising R15K or T26K, and at 4 weeks after booster immunization, its spleen was dissected and homogenized in 2 ml of RPMI cell culture medium using a homogenizer. 2 ml of the homogenate thus obtained was added to 2 ml of ficoll and centrifuged at 1,500 rpm for 30 minutes. T lymphocytes located between ficoll and the cell culture medium were separated, added to 15 ml of RPMI-10 cell culture medium, centrifuged at 1,000 rpm, and washed three times with the RPMI-10 medium. The T lymphocytes were diluted to a cell concentration of 5×10^6/ ml into a 24 well-plate, and the immunized peptide antigen was added to a final concentration of 2 μM. Then, the cells were cultured at 37° C. for 3 days in a CO2 incubator containing 5% CO2 and used as effector cells. In case of HCV, 5 week-old C57BL/6 mouse was immunized with liposomes comprising DBL peptide antigen, and T lymphocytes were isolated in the same manner as above and used as effector cells. On the other hand, p815 cell(ATCC TIB64) having MHC Class I same as that of Balb/C mouse was used as a target cell in case of HIV, and RMA cell(see: Hosken, N. A. and Bevan, M. J., J. Exp. Med., 175:719(1992)) or EL4 cell(ATCC TIB39) having MHC Class I same as that of C57BL/6 mouse was used as a target cell in case of HCV.
100 μM of the immunized peptide was added to the respective target cells, reacted at 37° C. for 16 hours, and washed twice with RPMI cell culture medium. Then, radioactive sodium chromate(Cr^51) was added to the cells and reacted at 37° C. for 2 hours in a CO2 incubator. After reaction, the cells were washed sufficiently with RPMI cell culture medium to remove unreacted sodium chromate, mixed with effector cells washed with phosphate buffer solution in various mixing ratios shown in table 5 below, and reacted at 37° C. for 4 hours in a CO2 incubator. The resultant medium was collected and measured for the intensity of gamma ray to determine cytotoxicity of effector cells against target cells(see: Table 5).

T2 cells = experiment: Cytotoxicity of peptide-stimulated blood cells (CTL) against T2 cells sensitized by synthesized peptides, Cr51 release; assay type: cell-based, human; details: for Specific cytotoxicity by CTL (%): T2 cells sensitized with 100 μg/ml peptide
Description: That is, blood positive to anti-HBV antibody(value obtained by ELISA: 1.0 or more) is collected from common blood donors, and centrifuged to harvest blood cells. The said peptides added in a concentration of 10 μg/ml to leukocytes remained after removing red blood cells from the blood cells, and incubated at 37° C. in a CO2 incubator maintained to contain 5% CO2. At 2 days after culture, 10 unit of interleukin-2 was added to the culture medium and the cells were further cultivated for 3 days. Then, blood cells having the same MHC were inactivated by mitomycin C and added to the culture medium as stimulating cells. And the peptides and interleukin-2 were added to the medium and the cells were further cultivated for 7 days. Then, it was determined whether the blood cells recognize and destruct T2 cells having a certain peptide at their surface, and the results were shown in Table 3 below and FIG. 2, respectively.
Destruction of T2 cell by cultured blood cell was determined as followings: 100 μg/ml of a peptide was added to T2 cells and reacted at 37° C. for 3 hours. Then, the cells were washed sufficiently to remove unreacted peptides, added with radioactive sodium chromate(Cr^51), and reacted at 37° C. for 2 hours in a CO2 incubator. And then, they were washed with RPMI medium sufficiently to remove unreacted sodium chromate, mixed with blood cells washed with PBS in a certain ratio, and reacted at 37° C. for 4 hours in a CO2 incubator. The resultant medium was collected and measured for intensity of gamma ray to determine cytotoxicity of the blood cells against T2 cell, i.e., target cell.

[1] = target: T1, HLA-A2.1, a human MHC Class I molecule (Homo sapiens, UniProt P04439, D140Y/D185E/D98H/E176V/E277Q/G131W/G231S/I119V/I121R/I166T/I218V/L300P/L318F/N151K/N90K/P208A/P217A/Q86G/Q94H/R138H/R169H/T345S); experiment: Binding of synthetic peptides to MHC Class I molecules at the surface of T2 cell (BB7.2 antibody, fluorocytometry); assay type: cell-based; details: peptide 1-100 μg/ml, 37° C., 4 hours; FIG. 1
T1 construct: endogenous in cells; host or cells: T2 cell line
Description: Seven different peptides including the peptides as disclosed in Table 1 above which were derived from HBV X protein were synthesized chemically and dissolved in phosphate buffered saline(hereinafter, referred to as “PBS”). In order to investigate whether the peptides can bind to MHC Class I molecules associated with induction of CTL, each peptide was added to T2 cell line in a concentration of 100, 64, 32, 16, 8, 4, 2 and 1 μg/ml, respectively, and reacted at 37° C. for 4 hours. And then, the cells were washed with PBS to remove unreacted peptides, added with BB7.2 antibody against HLA-A2.1, a human MHC Class I molecule, and reacted at 4° C. for 1 hour. The cells were washed with PBS again, added with fluorescein isothiocyanate(FITC)-conjugated anti-mouse immunoglobulin antibody, and reacted at 4° C. for 1 hour. Then, fluorescence of the cells was determined using fluorocytometer(FACScan, BECTON DICKINSON) and the results were shown in FIG. 1.
However, when T2 cells are cultivated in a medium containing peptides which can bind to MHC molecules, the peptides bind to MHC molecules at the surface of T2 cell to increase stability of MHC molecules, which results in increase in expression of MHC molecule. Based on the knowledge, binding of a specific peptide to MHC molecule at the surface of T2 cell can be analyzed by determining degree of binding of BB7.2 antibody to the cell surface.

[2] = Ratio of CTL against target cell 5:1
[3] = Ratio of CTL against target cell 10:1
[4] = Ratio of CTL against target cell 25:1

DLMGYIPL [D8L, DLMGYIPL]
Specific cytotoxicity by CTL (%) (RMA cell or EL4 cell; target cell:effector cell 1:10): 5.5% | Specific cytotoxicity by CTL (%) (RMA cell or EL4 cell; target cell:effector cell 1:20): 18% | Specific cytotoxicity by CTL (%) (RMA cell or EL4 cell; target cell:effector cell 1:30): 30%

CC[C@H](C)[C@H](NC(=O)[C@@H](NC(=O)[C@@H](NC(=O)[C@H](Cc1ccccc1)NC(=O)[C@H](C)NC(=O)[C@H](CCCNC(=N)N)NC(=O)CNC(=O)[C@@H]1CCCN1C(=O)CNC(=O)[C@H](CCCNC(=N)N)NC(=O)[C@H](CCC(N)=O)NC(=O)[C@@H](NC(=O)[C@@H](N)CCCNC(=N)N)[C@@H](C)CC)C(C)C)[C@@H](C)O)C(=O)NCC(=O)N[C@@H](CCCCN)C(=O)O [R15K, RIQRGPGRAFVTIGK]
Specific cytotoxicity by CTL (%) (p815 cell; target cell:effector cell 1:10): 7.5% | Specific cytotoxicity by CTL (%) (p815 cell; target cell:effector cell 1:20): 15% | Specific cytotoxicity by CTL (%) (p815 cell; target cell:effector cell 1:30): 25%

VLCLRPVGA [×1, VLCLRPVGA]
Specific cytotoxicity by CTL (%) (T2 cells; [2]): 6% | Specific cytotoxicity by CTL (%) (T2 cells; [3]): 11% | Specific cytotoxicity by CTL (%) (T2 cells; [4]): 15%

AMSTTDLEA [×5, AMSTTDLEA]
Specific cytotoxicity by CTL (%) (T2 cells; [2]): 16% | Specific cytotoxicity by CTL (%) (T2 cells; [3]): 24% | Specific cytotoxicity by CTL (%) (T2 cells; [4]): 31%

CC(C)C[C@H](NC(=O)CNC(=O)[C@H](CC(C)C)NC(=O)[C@@H](NC(=O)[C@H](CCCNC(=N)N)NC(=O)[C@H](CCCCN)NC(=O)[C@H](Cc1c[nH]cn1)NC(=O)[C@H](CC(C)C)NC(=O)[C@@H](N)C(C)C)[C@@H](C)O)C(=O)O [×4, VLHKRTLGL]
Specific cytotoxicity by CTL (%) (T2 cells; [2]): 8% | Specific cytotoxicity by CTL (%) (T2 cells; [3]): 16% | Specific cytotoxicity by CTL (%) (T2 cells; [4]): 21%

CLFKDWEEL (Hepatitis B virus) [×6, peptide derived from HBV X protein, position 115-123]
Specific cytotoxicity by CTL (%) (T2 cells; [2]): 11% | Specific cytotoxicity by CTL (%) (T2 cells; [3]): 16% | Specific cytotoxicity by CTL (%) (T2 cells; [4]): 23% | Recognition of peptide by cultured blood cells (CTL) (T2 cells; blood cells from anti-HBV antibody positive donors): recognized by cultured blood cells | Binding to MHC Class I molecules at the surface of T2 cell [1]: successfully bind

TLPSPSSSA [×2, TLPSPSSSA]
Specific cytotoxicity by CTL (%) (T2 cells; [2]): 5% | Specific cytotoxicity by CTL (%) (T2 cells; [3]): 10% | Specific cytotoxicity by CTL (%) (T2 cells; [4]): 11%

HLSLRGLFV [×3, HLSLRGLFV]
Specific cytotoxicity by CTL (%) (T2 cells; [2]): 10% | Specific cytotoxicity by CTL (%) (T2 cells; [3]): 17% | Specific cytotoxicity by CTL (%) (T2 cells; [4]): 20%

CC[C@H](C)[C@H](NC(=O)[C@H](CCCNC(=N)N)NC(=O)[C@@H](NC(=O)[C@H](CCCNC(=N)N)NC(=O)[C@H](CCCCN)NC(=O)[C@H](CCCNC(=N)N)NC(=O)[C@@H](NC(=O)[C@H](CC(N)=O)NC(=O)[C@H](CC(N)=O)NC(=O)[C@H](CC(N)=O)NC(=O)[C@@H]1CCCN1C(=O)[C@H](CCCNC(=N)N)NC(=O)[C@@H](N)[C@@H](C)O)[C@@H](C)O)[C@@H](C)CC)C(=O)N[C@@H](CCC(N)=O)C(=O)N[C@@H](CCCNC(=N)N)C(=O)NCC(=O)N1CCC[C@H]1C(=O)NCC(=O)N[C@@H](CCCNC(=N)N)C(=O)N[C@@H](C)C(=O)N[C@@H](Cc1ccccc1)C(=O)N[C@H](C(=O)N[C@H](C(=O)N[C@H](C(=O)NCC(=O)N[C@@H](CCCCN)C(=O)O)[C@@H](C)CC)[C@@H](C)O)C(C)C [T26K]
Specific cytotoxicity by CTL (%) (p815 cell; target cell:effector cell 1:10): 55% | Specific cytotoxicity by CTL (%) (p815 cell; target cell:effector cell 1:20): 80% | Specific cytotoxicity by CTL (%) (p815 cell; target cell:effector cell 1:30): 87%

EIRLKVFVL [×7, EIRLKVFVL]
Specific cytotoxicity by CTL (%) (T2 cells; [2]): 12% | Specific cytotoxicity by CTL (%) (T2 cells; [3]): 19% | Specific cytotoxicity by CTL (%) (T2 cells; [4]): 24%
